Results on 2 molecules are retold here after paper PMC11284787, “Ligand-Directed Labeling of the Adenosine A1 Receptor in Living Cells” (Journal of Medicinal Chemistry, 2024).

The structures appear in SMILES notation. Read-outs that look alike come from different tables or passages of the source.

Test [1] has as its target T1, NL-rA1AR (Rattus norvegicus, UniProt P25099).
T1 construct: expressed in transfected cells
T1 sequence (P25099 1-326): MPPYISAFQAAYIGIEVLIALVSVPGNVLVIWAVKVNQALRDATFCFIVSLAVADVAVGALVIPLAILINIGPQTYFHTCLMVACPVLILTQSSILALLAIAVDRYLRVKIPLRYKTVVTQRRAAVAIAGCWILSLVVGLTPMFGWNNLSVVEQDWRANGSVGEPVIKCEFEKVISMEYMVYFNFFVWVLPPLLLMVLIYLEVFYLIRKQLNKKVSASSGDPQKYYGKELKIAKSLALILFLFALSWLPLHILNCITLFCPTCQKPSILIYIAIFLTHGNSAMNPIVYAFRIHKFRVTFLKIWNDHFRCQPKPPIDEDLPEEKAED
Kind of test: NanoBRET competition ligand-binding assay (CA200645 tracer), NL-rA1AR. (In general: BRET reads energy transfer from a luciferase to a nearby fluorophore.)

In test [2] the test system is nontransfected HEK293 cells. Briefly: Confocal assessment of non-specific labelling in non-transfected HEK293T cells. It counts as cell-based, human. Particulars: 125 nM; cells do not express the A1AR. The source says: Having investigated the molecular pharmacology of 11 and 12 in a series of in vitro assays, we sought to apply the LD probes for studying A1AR localization and dynamics in living cells. To this end, LD probes 11 and 12 were initially used in confocal microscopy studies to test their ability to label and allow visualization of the SNAP-hA1AR in living HEK293T cells (Figure 6). […] With both probes, the fluorescence labeling colocalized with SNAP-hA1AR labeled with AF488 (Figure 6A,C top frames).
Supplementary Figures: Pharmacology
Figure S1. Fluorescence spectra of SulfoCy5-conjugated methyltetrazine in the absence or in the presence of probe 12 (PEG-TCO). “Turn-on” type reaction of tetrazine (Met-TetSulfoCy5) with PEGylated trans-cyclooctene (PEG-TCO)-labelled 12. Fluorescence excitation and emission spectra measured in HBSS with the corresponding tetrazineSulfoCy5 [100 nM] without, then with 12 (PEG-TCO) [1 µM] (allowed to react for 10 min prior detection). Exc maxima (Met-TetSulfoCy5 + PEG-TCO) = 1.80-fold increase compared to Met-TetSulfoCy5 alone; Em maxima (Met-TetSulfoCy5 + TCO) = 1.40-fold; Excitation and emission fluorescence spectra (1 nm step width) were measured were recorded on a CLARIOstar plate reader (BMG Labtech).
Figure S2. Assessment of 11 non-specific labelling performed in non-transfected live HEK293T cells. Left hand frame corresponds to SulfoCy5 channel. […]

A further test concerns the target T2, NL-hA1AR (Homo sapiens, UniProt P30542).
T2 construct: expressed in transfected cells
T2 sequence (P30542 1-326): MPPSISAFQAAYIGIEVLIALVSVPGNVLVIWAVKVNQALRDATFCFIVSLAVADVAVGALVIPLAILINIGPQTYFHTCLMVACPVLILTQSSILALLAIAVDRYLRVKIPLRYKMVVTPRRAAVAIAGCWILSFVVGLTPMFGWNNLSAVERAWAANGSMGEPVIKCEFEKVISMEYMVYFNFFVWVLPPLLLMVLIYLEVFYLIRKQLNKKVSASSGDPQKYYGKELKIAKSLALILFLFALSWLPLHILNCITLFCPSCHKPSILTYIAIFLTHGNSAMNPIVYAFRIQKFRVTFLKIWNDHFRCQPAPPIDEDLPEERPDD
Kind of test: NanoBRET saturation ligand-binding assay, NL-hA1AR. As for the experimental part: (§1) The ligand-binding properties of the newly synthesized probes were assessed in a series of pharmacological assays. Initially, a NanoBRET[47],[48] saturation binding experiment was used to evaluate the binding affinity of ligand-directed probes functionally labeled with the SulfoCy5 fluorophore (11) to the NanoLuc(NL)-tagged[49] hA1AR expressed in HEK293T cells.
(§2) NanoBRET binding assay. All NanoBRET experiments were performed in white flat […]
(§3) 37 °C for kinetic binding experiments. Emissions were read at 420 nm (80 nm bandpass; […]
(§4) the SulfoCy5-labelled probe. […]
(§5) nm emission by the 420 nm emission. The term “raw BRET ratio” refers to the unprocessed data as no background ratio has been subtracted. In all NanoBRET binding […]
(§6) competitive antagonist selective for the adenosine receptor under investigation […]
(§7) MRS1220 for the A3AR). HEK293T cells stably/transiently expressing Nluc-AR were […]
(§8) were incubated for 1 h at 37 °C. […]
(§9) NanoBRET saturation binding assay. Total and nonspecific saturation binding curves were fit simultaneously using the following equation: […]

Test [3] concerns the target T1, NL-rA1AR. Briefly: NanoBRET saturation ligand-binding assay, NL-rA1AR. On the procedure: as §1, §2, §3, §4, §5, §6, §7, §8, §9

For `CCCCn1c(=O)c2[nH]c(C34CCC(C(=O)NCCNC(=O)CCNC(=O)c5ccc(OC(=O)CCC(=O)NCCOCCOCCNC(=O)O[C@H]6CC/C=C/CCC6)c(F)c5)(CC3)CC4)nc2n(CCCC)c1=O` [Compound 12, 4-((3-((2-(4-(1,3-Dibutyl-2,6-dioxo-2,3,6,7-tetrahydro-1H-purin-8-yl)bicyclo[2.2.2]octane-1-carboxamido)ethyl)amino)-3-oxopropyl)carbamoyl)-2-fluorophenyl (R,E)-1-(Cyclooct-4-en-1-yloxy)-1,12-dioxo-5,8-dioxa-2,11-diazapentadecan-15-oate], the Ki was 0.0102 µM at NL-rA1AR [1] (CA200645 (25 nM) tracer, HEK293T cells, mean ± SEM, read-out: affinity values pKi, NL-rA1AR (converted)) and 0.00832 µM at NL-rA1AR [1] (supplementary CSV, read-out: AFFINITY (A1AR_rat) pKi (converted)).
As to `CCCCn1c(=O)c2[nH]c(C34CCC(C(=O)NCCNC(=O)CCNC(=O)c5ccc(OC(=O)CCCCC[N+]6=C(/C=C/C=C/C=C7/N(C)c8ccc(S(=O)(=O)O)cc8C7(C)C)C(C)(C)c7cc(S(=O)(=O)[O-])ccc76)c(F)c5)(CC3)CC4)nc2n(CCCC)c1=O` [Compound 11, 1-(6-(4-((3-((2-(4-(1,3-Dibutyl-2,6-dioxo-2,3,6,7-tetrahydro-1H-purin-8-yl)bicyclo[2.2.2]octane-1-carboxamido)ethyl)amino)-3-oxopropyl)carbamoyl)-2-fluorophenoxy)-6-oxohexyl)-3,3-dimethyl-2-((1E,3E)-5-((E)-1,3,3-trimethyl-5-sulfoindolin-2-ylidene)penta-1,3-dien-1-yl)-3H-indol-1-ium-5-sulfonate], in test [2], the “fluorescent signal in nontransfected HEK293 cells” value is “did not produce any detectable fluorescent signal”. Also, the Kd at NL-hA1AR (HEK293T cells stably expressing NL-hA1AR, 1 h 37 °C, mean ± SEM, read-out: affinity values pKD, NL-hA1AR (converted)) was 0.0309 µM; on NL-rA1AR [3] (HEK293T cells stably expressing rat NanoLuc-A1AR, mean ± SEM, read-out: affinity values pKD, NL-rA1AR (converted)), 0.00912 µM; on NL-rA1AR [3] (supplementary CSV, read-out: AFFINITY (A1AR_rat) pKD (converted)), 0.0102 µM. Also, the “greater affinity for the NL-A1AR compared to the NL-A2AAR (saturation binding)” value on NL-hA1AR (selectivity from pKD values) is reported as 7 fold.
